Patent US8729047B2, “Compositions for inhibiting redox-sensitive GTPases” (Board of Regents, The University of Texas System, priority 2010, dated 2014)

Legend:
HME-RhoC cells [1] = experiment: Apoptosis / cell population of cells treated with thiopurines; format: cell-based, human; conditions: not shown
RhoC C20S [2] = target: T1, RhoC C20S (Homo sapiens, UniProt P08134, C20S); experiment: Redox agent-mediated 6-TGDP dissociation (FIG. 16C); format: biochemical; set-up: made in house; host or cells: E. coli; conditions: 6-TGDP-loaded RhoC C20S treated with redox agent, free [3H]GDP 10 μM
Protocol: (§1) FIG. 16. Kinetic properties of RhoC with 6-TGDP in the presence or absence of a redox agent. All kinetic analyses are described elsewhere herein. (A) ^appKD values of Rac1, RhoA, RhoC, and RhoC C20S for 6-TGDP were estimated to be 7.9, 11.6, 11.8, and 11.2 μM, respectively. ^trueKD values of Rac1, RhoA, […] for 6-TGDP were then calculated to be 5.1, 10.8, 11.1, and 10.5 μM, respectively, by using a compensation equation, ^trueKD for 6-TGDP=^appKD for 6-TGDP/(1+[[^3H]GDP]/^trueKD for GDP) (Heo, J., and Hong, I. (2010) Biochemistry 49, 3965-3976), in conjunction with the values given. […] The GDP dissociation rates from RhoC C20S by NO, .NO2, and N2O3 were estimated to be 0.02×10^−3, 0.05×10^−3, and 0.04×10^−3 s^−1, respectively. […] (D) ^appKD values of RhoC for [^3H]GDP in the presence or absence of DTT were estimated to be 22.4 μM and […], respectively. ^appKD values of C20S RhoC for [^3H]GDP in the presence or absence of DTT were determined to be 24.8 μM and 25.2 μM, respectively. The regression values associated with these fits were >0.8595. All data points associated with vertical standard error bars shown in this figure are the mean values of triplicate measurements.
(§2) Transition metal-free assay buffer and vials as described in a previous study (Heo et al. Biochemistry 49, 3965-3976 (2010)) were used for all kinetic assays. The kinetic assay buffer contains the highest grade of 50 mM NaCl, 10 mM MgCl2, 1 mM EDTA, and 0.1 mM DTPA in 50 mM TrisHCl (pH 7.4). Before performance of any of the assays, all protein samples also were dialyzed with a metal-free buffer under anaerobic conditions. As with RhoA and Rac1 (Heo et al. J. Biol. Chem. 280, 31003-31010 (2005)), C20S RhoC were expressed in E. coli and purified using anionic and size exclusion columns.
(§3) (c) To test the Rho 6-TGDP-binding interaction in the presence of redox agents, the 6-TGDP-loaded RhoC protein was treated with redox agents in the presence of free […] (10 μM). An association of RhoC protein with [^3H]GDP to produce a RhoC-[^3H]GDP complex will occur proportionally after RhoC releases 6-TGDP through the action of redox agents. Therefore, the fraction of the redox agent-mediated release of the bound 6-TGDP per Rho protein over time can be deduced by determination of the RhoC-bound [^3H]GDP, where the quantity of RhoC-bound 6-TGDP equals 1 minus the determined fraction of the RhoC-bound [^3H]GDP as described in Section (b). The estimated data associated with the quantity of RhoC-bound 6-TGDP then was fitted to a one-phase exponential decay; Prism software was used to derive the rate of 6-TGDP dissociation from RhoC.

RhoC [3] = target: T2, RhoC (Homo sapiens, UniProt P08134); experiment: as above; format: biochemical; set-up: made in house; host or cells: E. coli; conditions: 6-TGDP-loaded RhoC treated with redox agent, free [3H]GDP 10 μM
Protocol: as §1, §2, §3

RhoC C20S [4] = target: T1, RhoC C20S; experiment: Redox agent-mediated GDP dissociation (FIG. 16B); format: biochemical; set-up: made in house; host or cells: E. coli; conditions: [3H]GDP-loaded protein 1 μM, redox agent ~3 μM, free GDP 10 μM, anaerobic
Protocol: as §1, §2
(§4) (b) The effect of redox agents such as NO, .NO2, and N2O3 on the binding interaction between RhoC proteins and GDP or 6-TGDP was examined under N2-filled serum-stoppered anaerobic experimental conditions (O2<3 ppm). These anaerobic experimental conditions were necessary to block the reaction of NO or .NO2 with O2 to produce higher oxides. The contents of NO and .NO2, respectively, in the sealed assay vials were determined by using a hemoglobin assay and NO2^−/NO3^− Assay Kit-C II (Dojindo) under anaerobic conditions (Heo et al. J. Biol. Chem. 280, 31003-31010 (2005); Heo et al. Biochemistry 43, 2314-2322 (2004)). N2O3 was generated by mixing NO and .NO2 1:1 stoichiometrically. […] The fraction of the redox agent-mediated release of the bound [^3H]GDP per Rho protein over time was determined as noted above, and the result was plotted against time. The rates of RhoC GDP dissociation in the presence of redox agents were determined by using Prism software to fit the result to a one-phase exponential decay.

RhoC [5] = target: T2, RhoC; experiment: Redox agent-mediated GDP dissociation (FIG. 16B); format: biochemical; set-up: made in house; host or cells: E. coli; conditions: [3H]GDP-loaded RhoC 1 μM, redox agent ~3 μM, free GDP 10 μM, anaerobic
Protocol: as §1, §2, §4

MLC = MLC phosphorylation in A7r5 cells; format: cell-based, rat; conditions: only NO donor, DETA/NO ≅10 μM, FIG. 20B
Protocol: (§5) FIG. 20. Determination of RhoA activity and MLC phosphorylation. […] Cell lysates in a buffer containing 1% NP-40, 10 mM EDTA, and 20 mM TrisHCl (pH 7.4) were centrifuged (50,000×g, 20 min) to remove solid matter. (A) The soluble cell extract was then used to perform Western blot analyses for RhoA and the MLC. This cell extract also was used for the co-IP-based ESI-MS analysis (FIG. 6). (B) A RhoA activity assay was colorimetrically determined using cell extract; the assay was performed with the RhoA G-LISA Activation Assay Kit (Cat. No. BK124) (Denver, Colo.). To examine the level of phosphorylation of the MLC, cells were cultured with ˜5 μCi of ^32P in 1 mL of phosphate-free DMEM. The collected cell extract was nutated with resin coupled with a macrophage myosin II antibody at 4° C. for 5 h. Resin was collected by centrifugation, and proteins bound to the resin were washed and eluted with a buffer (80° C.) containing […], 5 mM DTT, and 10 mM TrisHCl (pH 6.8). The immunoprecipitates were then analyzed by SDS-PAGE and autoradiographed. The values of RhoA activity and the MLC phosphorylation determined from untreated cells were set at 100%. […] The data represented in the figure represent the mean values of triplicate measurements, and the vertical error bar indicates standard errors.

RhoC C20S [6] = target: T1, RhoC C20S; experiment: RhoC expression (Western) and RhoC activity assay in cells; format: cell-based; set-up: expressed in transfected cells; host or cells: human mammary epithelial (HME) cells; conditions: HME-C20S RhoC cells, NO donor alone, three days
Protocol: (§6) FIG. 14. Determination of cell invasiveness in the presence and absence of thiopurines and/or redox agents. […] Western blot analysis representing the total expression of RhoC in these cells also is shown. (B) Experimental procedures for the determination of the time-dependent motility of cells using the QCM Cell Invasion Assay kit in the presence and absence of 6-TG and DETA/NO are described elsewhere herein.
(§7) Cells were lysed in an extraction buffer containing 50 mM NaCl, 5 mM MgCl2, 1 mM ethylenediaminetetraacetic acid (EDTA), 0.1 mM diethylenetriaminepentaacetic acid (DTPA), and 0.1% NP40 in 150 mM TrisHCl (pH 8.0). The content of […] RhoC in cells then was determined by using Western analysis that relies on a monoclonal anti-RhoC antibody (Biocompare, South San Francisco, Calif.). To determine RhoC activity, the colorimetric RhoA activation assay Biochem Kit (Cytoskeleton, Denver, Colo.) was used essentially as described in the previous study (Hall et al. Neoplasia 10, 797-803 (2008)) except that the RhoC specific antibody (vide supra), instead of the RhoA antibody included in the assay kit, was used for this analysis.

RhoC [7] = target: T2, RhoC; experiment: as above; format: cell-based; set-up: endogenous in cells; host or cells: SUM149, SUM102, SW480, HCCLM3 (endogenous); HME-RhoC (transfected with wild type RhoC); conditions: SUM149 and HME-RhoC cells, NO donor alone, three days
Protocol: as §6, §7

SUM149 cells [8] = experiment: Matrigel invasion (cell motility) assay; format: cell-based, human; conditions: NO donor alone 10 μM, three days continuous; FIG. 14A
Excerpt: as §6
(§8) The top chamber of a Transwell filter (6.5 mm with 8 μm pores, Costar; Corning, N.Y.) was coated with a 10 μL aliquot of 10 mg/mL Matrigel, and the lower chamber of the Transwell was filled with either serum-free or serum-containing media. Sample cells were prepared to resuspend cells in a serum-free medium with 0.1% BSA at a concentration of 4×10^5 cells/mL. […] The Transwell filters were fixed with methanol, stained with haematoxylin and eosin, and cells in the serum-containing samples were counted. The number of cells that had invaded the serum-free, medium-containing lower chambers was used as a control background.

HME-C20S RhoC cells [9] = experiment: Matrigel invasion (cell motility) assay; format: cell-based, human; conditions: NO donor alone 10 μM, three days continuous; FIG. 14A
Excerpt: as §6, §8

HME-RhoC cells [10] = experiment: Matrigel invasion (cell motility) assay; format: cell-based, human; conditions: NO donor alone 10 μM, three days continuous; FIG. 14A
Protocol: FIG. 5. Determination of cell invasiveness in the presence and absence of 6-thiopurine and/or a redox agent. The top chamber of a Transwell filter (6.5 mm with 8 μm pores, Costar; Corning, N.Y.) was coated with a 10 μL aliquot of 10 mg/mL Matrigel (BD Biosciences, Bedford Mass.), and the lower chamber of the Transwell was filled with either serum-free or serum-containing media. Sample cells (e.g., 6-TG-resistant HME-RhoC cells) were prepared to resuspend cells in a serum-free medium with 0.1% BSA at a concentration of 4×10^5 cells/mL. At this point, neither 6-thiopurine nor GSNO were added to the cells. The sample cells (0.5 mL) were added to the top chamber of a Transwell filter and were incubated for 24 h at 37° C. in a 10% CO2 incubator. The Transwell filters were fixed with methanol, stained with H&E, and cells in the serum-containing samples were counted. The number of cells that had invaded the serum-free medium-containing lower chambers was used as a control background. Results are given as percent invasion over that seen in HME-RhoC cells (100%) and represent mean and standard error values from triplicate measurements.
FIG. 11. Determination of cell invasiveness in the presence and absence of […] and/or a redox agent. […] The number of cells that had invaded the serum-free medium-containing lower chambers was used as a control background. Results are given as percent invasion over that seen in HME-RhoC cells (100%) and represent mean and standard error values from triplicate measurements.
as §6, §8

SUM149 cells [11] = experiment: MTT cell viability and caspase-3/8 assays; format: cell-based, human; conditions: NO donor alone; FIG. 25
Excerpt: (§9) FIG. 25. […] (B) Caspase-3/8 assay: the apoptotic activity of sample cells treated with the apoptotic inducer was set to be 100%, and other results were then expressed as normalized values against the mean value associated with the treatment with the apoptotic inducer. For both (A) and (B), all values represent the mean values and standard error values from triplicate measurements.

HME-RhoC cells [12] = experiment: MTT cell viability and caspase-3/8 assays; format: cell-based, human; conditions: NO donor alone; FIG. 25
Excerpt: as §9

HME-C20S RhoC cells [13] = experiment: MTT cell viability and caspase-3/8 assays; format: cell-based, human; conditions: NO donor alone; FIG. 25
Excerpt: as §9

RhoA = target: T3, RhoA (Rattus norvegicus, UniProt P61589); experiment: RhoA expression (Western) and RhoA G-LISA activity in A7r5 cells; format: cell-based
T3 construct: endogenous in cells; host or cells: A7r5 cells (rat aortic vascular smooth muscle)
Protocol: as §5

T2 sequence (P08134 whole entry): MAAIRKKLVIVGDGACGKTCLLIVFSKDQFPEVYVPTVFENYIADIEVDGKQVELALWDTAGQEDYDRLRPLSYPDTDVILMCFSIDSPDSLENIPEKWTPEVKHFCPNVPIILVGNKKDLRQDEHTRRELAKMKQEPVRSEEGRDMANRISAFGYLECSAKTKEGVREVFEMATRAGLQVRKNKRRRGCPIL
T1 sequence (P08134 whole entry C20S): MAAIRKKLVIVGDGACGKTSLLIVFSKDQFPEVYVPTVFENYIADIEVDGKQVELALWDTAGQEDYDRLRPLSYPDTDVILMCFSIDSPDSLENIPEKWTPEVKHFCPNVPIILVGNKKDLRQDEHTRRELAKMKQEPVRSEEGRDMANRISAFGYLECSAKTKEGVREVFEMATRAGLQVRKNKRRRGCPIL
T3 sequence (P61589 whole entry): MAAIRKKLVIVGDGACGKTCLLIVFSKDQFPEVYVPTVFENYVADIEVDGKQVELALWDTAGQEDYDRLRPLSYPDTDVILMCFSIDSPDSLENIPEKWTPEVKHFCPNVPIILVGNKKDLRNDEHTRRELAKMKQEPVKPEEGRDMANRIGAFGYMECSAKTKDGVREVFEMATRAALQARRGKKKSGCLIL

| SMILES | cell population with other 6-TG analogs (HME-RhoC cells [1]) | rate of 6-TGDP dissociation (RhoC C20S [2]) [s⁻¹] | rate of 6-TGDP dissociation (RhoC [3]) [s⁻¹] | rate of GDP dissociation (RhoC C20S [4]) [s⁻¹] | rate of GDP dissociation (RhoC [5]) [s⁻¹] | effect on RhoC activity (RhoC C20S [6]) | effect on RhoC activity (RhoC [7]) | effect on invasive cell motility (SUM149 cells [8]) | effect on invasive cell motility (HME-C20S RhoC cells [9]) | effect on invasive cell motility (HME-RhoC cells [10]) | further results |
| --- | --- | --- | --- | --- | --- | --- | --- | --- | --- | --- | --- |
| Sc1ncnc2nc[nH]c12 [6-MP, 6-mercaptopurine] | decrease in the cell population |  |  |  |  |  |  |  |  |  |  |
| [O]N=O [.NO2, nitrogen dioxide] |  | 0.00627 | 0.00265 | 5e-05 | 0.00604 |  |  |  |  |  |  |
| Cn1cnc([N+](=O)[O-])c1Sc1ncnc2nc[nH]c12 [AZA, azathioprine] | decrease in the cell population |  |  |  |  |  |  |  |  |  |  |
| NCCN(CCN)/[N+]([O-])=N/O [DETA/NO, diethylenetriamine nitric oxide adduct] |  |  |  |  |  | minimal | minimal | minimal | minimal | minimal | MLC dephosphorylation (MLC): sizable fraction of the MLC was dephosphorylated; cell viability and caspase activity (SUM149 cells [11]): minimally changed; cell viability and caspase activity (HME-RhoC cells [12]): minimally changed; cell viability and caspase activity (HME-C20S RhoC cells [13]): minimally changed; concentration of NO donor alone required for RhoA inactivation (RhoA; not shown): > 50 µM; RhoA inactivation (RhoA; only NO donor, DETA/NO ≅10 μM, FIG. 20B): minimal fraction of RhoA was inactivated |
| N[C@@H](CCC(=O)N[C@@H](CSN=O)C(=O)NCC(=O)O)C(=O)O [GSNO, S-Nitrosoglutathione] |  |  |  |  |  | minimal | minimal | minimal | minimal | minimal |  |
| [N]=O [NO, nitric oxide] |  | 4e-05 | 8e-05 | 2e-05 | 0.00019 |  |  |  |  |  |  |
